“Also recorded” adds a separate entry of the source.
Tested on: canonical Wnt signaling
Assay: Atherosclerosis in high fat diet-fed Apoe−/− and DKO TCF/Lef-LacZ mice
Type: in vivo
From the text: Apoe −/− and endothelial GR KO/Apo E KO double knockout (DKO) mice were fed a high fat diet containing 1.25% cholesterol (Research Diets) for the time indicated. In some experiments, animals of both genotype were bred to the BAT-GAL (ß-catenin/TCF/LEF) reporter transgenic mouse. Mice were sacrificed and the aortas removed. Aortas were stained with X-galactosidase (Sigma-Aldrich) according to the manufacturer's instructions. In other aortas, total RNA was extracted and cDNA was made as described above. The custom PCR array was used to evaluate pathways of interest as described. All studies were performed according to a protocol approved by the Institutional Care and use Committee at Yale University School of Medicine and were consistent with the National Institutes of Health Guidelines for the Care of Laboratory Animals.
Mice were fasted for 12-15 hours and blood was collected by retro-orbital venous puncture. Whole blood was spun down and plasma stored at −80° C. Total cholesterol and triglyceride levels were measured enzymatically by kits from Wako and Sigma, respectively, according to the manufacturer's instructions.
At the completion of high-fat diet feeding mice were anesthetized and euthanized. Mouse hearts were perfused with PBS and then 4% paraformaldehyde (PFA) and the aortas and were dissected out using a dissecting microscope and maintained in PFA overnight. Whole aortas were stained with Oil Red O (Sigma) to quantify lesion area. Oil Red O stock solution (35 ml, 0.2% weight/volume in methanol) was mixed with 10 ml 1 M NaOH and filtered. Aortas were briefly rinsed in 78% methanol, incubated in Oil Red O for 45 minutes and then destained in 78% methanol for 5 minutes and mounted on microscopic slides. Lipid staining and lesion size were quantified by averaging six sections from the same mouse using the IMAGE J program.
In order to visualize the activation of canonical Wnt signaling, Apoe^−/−, GR^fl/fl, Tie2 Cre−; TCF/Lef-LacZ (Apoe^−/−) mice were bred with Apoe^−/−, GR^fl/fl, Tie2 Cre+; TCF/Lef-LacZ (DKO) mice. Apoe^−/− and DKO mice were fed a high fat diet (HFD) for 12 weeks. The Wnt inhibitor (wnti) LGK974 at a dose of 5 mg/kg body weight, or vehicle, was administered 6 days/week by oral gavage from 4-12 weeks. The aortas of vehicle-treated control animals and wnti-treated animals (n=6-7/group) were stained for LacZ (FIG. 11B). A LacZ(−) aorta was included as a control. […] Aortic area stained is quantified in the corresponding graph (FIG. 11B). Body weight of the animals of both genotypes with and without Wnti treatment was measured. […] Triglycerides, total cholesterol and HDL cholesterol were measured after 12 weeks of diet feeding in animals of both genotypes in the presence of absence of Wnti. […] Lipid deposition in aortas of wnti- or vehicle-treated Apoe^−/− and DKO treated mice was analyzed by Oil Red O staining. Atherogenic lesion area was calculated by using the Image J program. […] Masson Trichrome and H&E staining was performed in the brachiocephalic artery of Wnti- or sham-treated Apoe^−/− and DKO treated mice (FIG. 11F). Lesion size was measured using Image J program.

[1] = 5 mg/kg oral gavage 6 days/week, weeks 4-12 of HFD, both genotypes

## Cc1cc(-c2ncc(CC(=O)Nc3ccc(-c4cnccn4)cn3)cc2C)ccn1 [LGK974]
5 mg/kg oral gavage 6 days/week, weeks 4-12 of HFD
  atherosclerosis prognosis / atherogenic phenotype: significantly improves the atherogenic phenotype; also recorded: surprising improvement in atherosclerosis prognosis
[1]
  activation of canonical Wnt signaling (LacZ staining in aortas): clearly attenuated
  body weight: no weight loss
Masson Trichrome and H&E staining
  lesion size in brachiocephalic arteries: dramatically reduced lesion size
After 12 weeks of HFD, both genotypes
  cholesterol: dramatic reduction in cholesterol; also recorded: enormous
Both genotypes
  lipid deposition in aortas (Oil Red O staining): dramatic reduction in lipid deposition
In vivo use in atherogenic mouse model
  decrease in cholesterol levels: about 50%
mouse, in vivo
  H&E and Oil Red O staining in the aortic root of heart sections: histological improvement
